# According to patent publication US7803792B2, “Quaternary ammonium compounds” (Asahi Kasei Pharma Corporation, priority 2002, dated 2010):
# What was measured:
# human IBAT = molecular target: T1, human IBAT (Homo sapiens, UniProt Q12908); experiment: In vitro assay of temporarily expressed human IBAT transporter using Cos 7 cells (Test Example 8); format: cell-based; details: Cos 7 cells temporarily expressing human IBAT; [3H] taurocholate 8 μM, 37° C., 60 minutes
# T1 construct: expressed in transfected cells; host or cells: Cos 7
# T1 sequence (Q12908 1-348): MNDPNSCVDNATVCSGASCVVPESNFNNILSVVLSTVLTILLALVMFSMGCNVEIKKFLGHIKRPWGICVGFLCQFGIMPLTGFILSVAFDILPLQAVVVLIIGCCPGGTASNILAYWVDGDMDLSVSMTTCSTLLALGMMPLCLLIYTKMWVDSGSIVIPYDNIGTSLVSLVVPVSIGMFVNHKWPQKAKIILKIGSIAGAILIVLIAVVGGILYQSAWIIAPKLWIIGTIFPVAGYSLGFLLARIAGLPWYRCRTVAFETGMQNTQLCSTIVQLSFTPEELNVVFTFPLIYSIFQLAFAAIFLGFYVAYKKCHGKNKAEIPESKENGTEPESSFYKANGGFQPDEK
# Procedure, shortened: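 Cos 7 cells transiently transfected with human or rat IBAT cDNA, assayed one day later in Hank's buffer with 25 mM glucose, 10 mM HEPES (pH 7.4) plus compound. Uptake of 8 μM [^3H]taurocholate over 60 min at 37 °C, stopped with 1 mM taurocholate washes; lysate radioactivity by scintillation counting.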
# rat IBAT = molecular target: T2, rat IBAT (Rattus norvegicus, UniProt Q62633); experiment: In vitro assay of temporarily expressed rat IBAT transporter using Cos 7 cells (Test Example 8); format: cell-based; details: Cos 7 cells temporarily expressing rat IBAT; [3H] taurocholate 8 μM, 37° C., 60 minutes
# T2 construct: expressed in transfected cells; host or cells: Cos 7
# T2 sequence (Q62633 1-348): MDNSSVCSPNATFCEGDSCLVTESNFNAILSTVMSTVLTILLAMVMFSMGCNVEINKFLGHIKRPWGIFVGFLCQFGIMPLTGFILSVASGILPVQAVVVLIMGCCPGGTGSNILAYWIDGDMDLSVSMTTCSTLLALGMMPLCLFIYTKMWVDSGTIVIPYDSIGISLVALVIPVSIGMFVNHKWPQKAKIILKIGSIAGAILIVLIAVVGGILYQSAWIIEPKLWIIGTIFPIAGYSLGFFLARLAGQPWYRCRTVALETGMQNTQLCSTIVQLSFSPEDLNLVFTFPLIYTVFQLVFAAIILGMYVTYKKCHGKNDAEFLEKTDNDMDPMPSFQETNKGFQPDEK
# Procedure: In Vitro Assay of Compounds Which Inhibit Temporarily Expressed Human IBAT Transporter or Rat IBAT Transporter Using Cos 7 Cells
# In this test example, the in vitro assay of the compounds which inhibit temporarily expressed human IBAT transporter or rat IBAT transporter using Cos cells was carried out according to the method described in Am. J. Physiol., 274, G157-169.
# That is, […] Cos 7 were inoculated on a 24-well cell plate. One day later, 0.3 μg per well of cDNA of a human IBAT or a rat IBAT was transfected by using FuGENE6 (manufactured by ROCHE PHARMACEUTICAL CO., LTD.). For the assay, the cells cultured for one day after the transfection were used and the following procedure was followed. The cells were washed once with an assay buffer, Hank's buffer solution containing 25 mM glucose and with 10 mM HEPES (pH 7.4), and then the assay buffer was replaced by an assay buffer to which the test compound was added. After adding [^3H] taurocholate to a final concentration of 8 μM, the cells were incubated at 37° C. for 60 minutes. [^3H] taurocholate was allowed to be incorporated in Cos 7 cells through human IBAT or rat IBAT. The reaction was stopped by washing twice with a buffer prepared by adding 1 mM taurocholate to the assay buffer and lyzing the cells with 0.2M NaOH. Measurement of radioactivity was carried out by introducing the cell lyzate in 4 ml of liquid scintillation cocktail, stirring the mixture well, and then measuring the radioactivity by a scintillation counter.
# Caco 2 cells = experiment: Toxicity with respect to alimentary canal: cytotoxicity to Caco 2, LDH activity (Test Example 12); format: cell-based, human; details: LDH activity after 2 hours, relative to cytolytic agent = 100%
# Procedure, shortened: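 Human Caco 2 intestinal cells, cultured 48 hours after seeding at 10,000 cells/well, received test compounds diluted in medium. LDH released into the medium after 2 hours was measured and expressed relative to cytolytic-agent-lysed cells (100%) as cytotoxicity.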
# [1] = tested on: Cholic acid-loaded rat model; experiment: Bile acid-decreasing effect in portal vein of rats loaded with cholic acid (Test Example 2); format: in vivo; details: 0.1 mg/kg oral with cholic acid 200 mg/kg, portal vein blood after 2 hours
# Procedure: Bile Acid-Decreasing Effect in Portal Vein of Rats Loaded With Cholic Acid
# In this test example, the test for confirming the bile acid-decreasing effect in portal vein of cholic acid-loaded rats was carried out according to the method described in Pharmacology and Therapeutics [Jpn Pharmacol. Ther., Vol. 24 Supplement, 1996, 103 (S-577)-110 (S-584)].
# That is, 7 to 9 weeks old SD (IGS) rats were starved on the day before the test and thereafter. […] After 2 hours from the administration, a sample of blood was taken from a portal vein and total serum bile acid level was measured to study the effect of the test compound (n=6). Further, as a control group, a group (n=6) loaded with cholic acid (200 mg/kg) only was prepared and the same test procedure was followed. A commercially available kit (trade name: SOTANJUSAN-TEST WAKO-(SOTANJUSAN=total bile acid), manufactured by WAKO PURE CHEMICAL […], LTD.) was used for the measurement of bile acid. Assuming the value of the control group, which is a group in which no test compound was used, as 100%, the rate of decrease (percentage (%) of decrease) of the bile acid level when a fixed amount of the test compound was used was determined.
Compound,IC50 (human IBAT) [nM],IC50 (rat IBAT) [nM],Toxicity (%) to Caco 2 (Caco 2 cells; 3 μM) [%],Toxicity (%) to Caco 2 (Caco 2 cells; 10 μM) [%],Toxicity (%) to Caco 2 (Caco 2 cells; 30 μM) [%],Rate of decrease (%) of bile acid ([1]; HCO-60 0.1%) [%],Rate of decrease (%) of bile acid ([1]; Tween 20 0.05%) [%]
"CCCCC1(CCCC)CS(=O)(=O)c2ccc(N(C)C)cc2C(c2cccc(NC(=S)NCCC[N+]34CCC(CC3)CC4)c2)N1 (centres unmarked) [Example 9, 1-(3-{3-[3,3-Dibutyl-7-dimethylamino-1,1-dioxo-2,3,4,5-tetrahydro-1,4-benzothiazepin-5-yl)phenyl]thioureido}-propyl)-1-azoniabicyclo[2.2.2]octane bromide]",76,36,–,–,–,–,–
CCCCC1(CCCC)CS(=O)(=O)c2ccc(N(C)C)cc2C(c2cccc(NC(=S)Nc3ccc(C[N+]45CCC(CC4)CC5)cc3)c2)N1.[Br-] (centres unmarked) [Example 3695],37,5,<1,<1,<1,23,–
CCCCC1(CCCC)CS(=O)(=O)c2ccc(N(C)C)cc2C(c2cccc(NC(=S)CCCCC[N+]34CCC(c5ccccc5)(CC3)CC4)c2)N1 (centres unmarked) [Example 3853],28,9,<1,<1,<1,36,–
CCCCC1(CCCC)CS(=O)(=O)c2ccc(N(C)C)cc2C(c2cccc(NC(=S)CCCCCCC[N+]34CCC(CC3)CC4)c2)N1 (centres unmarked) [Example 3932],36,9,–,–,–,–,30
